Experimental data taken from ChEMBL document CHEMBL1201862, “PubChem BioAssay data set” (2004).
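Dose response: 5 concentrations. Exposure: 48 h. Format: 96-well plates. Endpoint: linear interpolation; highest concentration if not reached. GI50: concentration for 50% inhibition of growth.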 Activity calls are given as the source filed them. Cut-off read from the data, not from the text of the source: active = GI50 up to about 1.1 µM and inactive = higher.

What was measured:
Test in all cases: NCI tumour cell line growth inhibition, 48 h
DLD-1 = system: DLD-1
DMS-273 = system: DMS-273
KM-20L2 = system: KM-20L2
LXFL 529 = system: LXFL 529
M19-MEL = system: M19-MEL
RXF 631 = system: RXF 631
HOP-18 = system: HOP-18
SNB-78 = system: SNB-78
XF498 = system: XF498

SMILES	GI50 (DLD-1)	GI50 (DMS-273)	GI50 (KM-20L2)	GI50 (LXFL 529)	GI50 (M19-MEL)	GI50 (RXF 631)	GI50 (HOP-18)	GI50 (SNB-78)	GI50 (XF498)
COc1cc(C(C)c2cc3c(cc2OCCN)OCO3)cc(OC)c1OC (centres undefined)	36 µM (inactive)	> 100 µM (inactive)	28.8 µM (inactive)	75.5 µM (inactive)	39.8 µM (inactive)	> 100 µM (inactive)	–	–	–
COc1ccc(N2C(=O)C3c4[nH]c5ccc(OC)cc5c4C4CCC(C(C)(C)C)CC4C3C2=O)cc1 (centres undefined)	64.7 µM (inactive)	10.2 µM (inactive)	86.9 µM (inactive)	17.6 µM (inactive)	48.5 µM (inactive)	–	44.1 µM (inactive)	3.86 µM (inactive)	56.2 µM (inactive)
Cn1c(C2CCCc3c2c2ccccc2n3C)cc2ccccc21 (centres undefined)	126 µM (inactive)	57.3 µM (inactive)	179 µM (inactive)	121 µM (inactive)	85.5 µM (inactive)	126 µM (inactive)	8.02 µM (inactive)	–	–
CCCCCCCCCC[C@@H](O)[C@@H]1CC[C@H]([C@H]2CC[C@@H]([C@@H](O)CCCCCCCCCC[C@H]3CC(CC(C)=O)C(=O)O3)O2)O1 (some centres undefined)	16.6 µM (inactive)	10.3 µM (inactive)	14.6 µM (inactive)	3.3 µM (inactive)	13.9 µM (inactive)	8.91 µM (inactive)	–	10.9 µM (inactive)	–
N=C(N)Cn1cnc2ccccc21	–	–	> 100 µM (inactive)	> 100 µM (inactive)	> 100 µM (inactive)	–	> 100 µM (inactive)	> 100 µM (inactive)	–
C/C(=N/NC(N)=S)C(CN(C)C)C(C1=C(O)c2ccccc2OC1)c1ccccc1 (centres undefined)	> 100 µM (inactive)	> 100 µM (inactive)	> 100 µM (inactive)	> 100 µM (inactive)	> 100 µM (inactive)	–	> 100 µM (inactive)	> 100 µM (inactive)	> 100 µM (inactive)
C/C=C(/C)C(=O)O[C@H]1[C@H](O)CC(c2ccc3c(c2O)C(=O)C2=C(O)C4(OC)C(=O)C(C(N)=O)=C(O)[C@H](CC(=O)c5ccccc5O)C4CC2[C@@]3(C)OC)O[C@@H]1C (some centres undefined)	0.01 µM (active)	0.01 µM (active)	0.01 µM (active)	0.01 µM (active)	0.01 µM (active)	–	0.01 µM (active)	–	–
COC(=O)/C(C#N)=C1\CCC(O)N1 (centres undefined)	> 100 µM (inactive)	> 100 µM (inactive)	> 100 µM (inactive)	> 100 µM (inactive)	> 100 µM (inactive)	–	> 100 µM (inactive)	> 100 µM (inactive)	> 100 µM (inactive)
Cc1nnc2n1N=C(CC(=O)c1ccc(O)cc1O)CN2N	> 100 µM (inactive)	40.4 µM (inactive)	> 100 µM (inactive)	> 100 µM (inactive)	91.4 µM (inactive)	> 100 µM (inactive)	–	> 100 µM (inactive)	–
O=C(O)C1CCC(=O)N1C(=O)C(Cl)c1ccccc1 (centres undefined)	> 100 µM (inactive)	> 100 µM (inactive)	> 100 µM (inactive)	> 100 µM (inactive)	> 100 µM (inactive)	> 100 µM (inactive)	> 100 µM (inactive)	> 100 µM (inactive)	> 100 µM (inactive)
COc1ccc(C(=O)Nc2ccccc2C#N)cc1	> 100 µM (inactive)	> 100 µM (inactive)	> 100 µM (inactive)	–	> 100 µM (inactive)	–	> 100 µM (inactive)	> 100 µM (inactive)	> 100 µM (inactive)
N=c1c2ccccc2sc2nc3ccccc3n12	> 100 µM (inactive)	> 100 µM (inactive)	–	> 100 µM (inactive)	> 100 µM (inactive)	–	> 100 µM (inactive)	> 100 µM (inactive)	85.1 µM (inactive)
COc1cc2ccnc([C@@H](OC(=O)c3ccccc3)c3ccc(OC)c(OC)c3OC)c2cc1OC	27.9 µM (inactive)	> 10 µM (inactive)	32.3 µM (inactive)	30.8 µM (inactive)	73.6 µM (inactive)	50 µM (inactive)	> 100 µM (inactive)	50.5 µM (inactive)	–
COc1ccc(C2[C@@H](Cl)C(=O)N2c2ccc(OC)cc2)cc1 (some centres undefined)	89.5 µM (inactive)	62.7 µM (inactive)	–	62.8 µM (inactive)	50.5 µM (inactive)	–	–	> 100 µM (inactive)	–
NC1CCCCC1.O=C(O)C(CP(=O)(O)O)=C(Cl)Cl	–	> 100 µM (inactive)	> 100 µM (inactive)	> 100 µM (inactive)	> 100 µM (inactive)	–	> 100 µM (inactive)	> 100 µM (inactive)	> 100 µM (inactive)
CCNC(=O)/C(=C/c1ccc(OC)cc1)c1cc(OC)c(OC)c(OC)c1	14.7 µM (inactive)	3.47 µM (inactive)	3.91 µM (inactive)	24.2 µM (inactive)	14.8 µM (inactive)	32.5 µM (inactive)	> 100 µM (inactive)	23.1 µM (inactive)	17.3 µM (inactive)
CCOC(=O)C1=C(N)N(c2ccccc2)/C(=C2\SC(=S)N(c3ccc(C)cc3)C2=O)S1	–	–	–	59.2 µM (inactive)	> 100 µM (inactive)	–	45.2 µM (inactive)	–	–
Nc1ccc2n[se]nc2c1	> 100 µM (inactive)	> 100 µM (inactive)	> 100 µM (inactive)	> 100 µM (inactive)	> 100 µM (inactive)	> 100 µM (inactive)	> 100 µM (inactive)	> 100 µM (inactive)	> 100 µM (inactive)
Cc1c(C(=O)C/C(=N\O)C(=O)Nc2cc(Cl)c(Cl)cc2Cl)[n+]([O-])c2ccccc2[n+]1[O-]	22 µM (inactive)	17.1 µM (inactive)	15.9 µM (inactive)	15 µM (inactive)	2.2 µM (inactive)	–	20.7 µM (inactive)	41.3 µM (inactive)	25.9 µM (inactive)
CC(SC(=S)Nc1cccc(F)c1)C(=O)O (centres undefined)	–	11.8 µM (inactive)	26.4 µM (inactive)	17.9 µM (inactive)	–	–	–	38.9 µM (inactive)	–
Cc1c2c(ccc3ccccc32)c[n+]2ccccc12	9.75 µM (inactive)	12.7 µM (inactive)	12.6 µM (inactive)	5.09 µM (inactive)	–	–	–	–	–
C=CCN1C(=O)C(=O)N(CC=C)C(=O)C1=O	> 100 µM (inactive)	> 100 µM (inactive)	> 100 µM (inactive)	> 100 µM (inactive)	> 100 µM (inactive)	–	–	> 100 µM (inactive)	> 100 µM (inactive)
